Structures are written as SMILES.

Series [1] has as its system zebrafish embryos. Nature of the series: Zebrafish toxicity: heart rates. It is filed as in vivo. The following applies: for Heart rates of zebrafish: control 117 beats/min. How it is done:
(§1) To investigate the toxicity of these four compounds, the heart rates and the mortality rates of zebrafish embryos were recorded (Table 2 and Table 3). The heart rate of zebrafish in the control group was 117 beats/min.
(§2) Using transgenic fli-1: enhanced GFP zebrafish embryos, we investigated the effects of all compounds on angiogenesis. Zebrafish embryos were generated by natural pairwise mating and raised at 28.5 °C in embryo water (0.2 g/L of Instant Ocean Salt in distilled water). At about 6 h post fertilization (hpf), the embryos were sorted in the 6-well plate (six embryos/well), removing dead and unhealthy embryos. Then the embryos were treated with the indicated concentrations of compounds which were added into embryo water. After incubation for 24 or 48 h, the embryos were anesthetized using 0.05% 2-phenoxyethanol in embryo water, quantified and photographed.

For series [2], the system named is zebrafish embryos. Nature of the series: Zebrafish toxicity: mortality rate. In kind it is in vivo, zebrafish (Danio rerio). The method, then:
as §1, §2

In series [3] the test system is HUVECs. Nature of the series: Wound-healing migration assay. It is filed as cell-based, Human. The following applies: 1 μM, 24 h, control = 100%. The source says: The migration of ECs is an important step of angiogenesis. The continuity of vascular ECs is the most important factor in preserving vessel wall function. Migration of ECs is essential to the recovery of this continuity after vascular ECs injury. […] As illustrated in Figure 3(I), the HUVECs migrated into the wound area actively (between the two white dash lines) under the compound-free condition (control).
Figure 3 Effects on the HUVECs migration. (I) HUVECs suspended in serum-free Dulbecco’s Modified Eagle Medium (DMEM) containing compounds (0.25 or 0.5 or 1 μM) for 24 h were photographed under a phase contrast microscopy (Olympus CKX41, magnification: 50×). Control was treated with serum-free DMEM which was consided as resulting in 100%; (II) Migration rates of compounds on the HUVECs. Data represented the mean standard deviation (SD) from three independent experiments. *** p < 0.005compared with control.
HUVECs were seeded in 6-well plates precoated with 0.1% gelatin, and grown overnight to confluence. The monolayer cells were wounded by scratching with 10 μL pipet tips and washed twice with serum-free DMEM (Dulbecco’s modified eagle medium) to remove the nonadherent cells and then replaced by serum-free DMEM with the indicated concentrations of compounds for 24 h. Images were taken at 0 h and 24 h independently after incubation at 37 °C, 5% CO2 environment. The migrated HUVECs were manually counted. The values were observed from four randomly selected fields.

Series [4] has as its system HUVECs. Nature of the series: Matrigel tube formation assay. It is filed as cell-based, Human. How it is done: In the later stages of angiogenesis, tube formation of ECs is also an important process. Thus, a Matrigel tube formation assay was applied to assess the ability of HUVECs to form ECs vascular structures which is believed to be significant in new vessel formation.
Figure 4 Effects on the HUVECs tube formation. (I) HUVECs (1 × 10^4 cells) suspended in DMEM containing each compound (0.5 or 1 or 2 μM) were added to the Matrigel. Control was treated with DMEM alone. After incubation for 6 h at 37 °C, capillary networks were photographed and quantified (Olympus CKX41, magnification: 100×); (II) Rates of the HUVECs tube formation. The number of intact tubes was counted in five randomly chosen regions and expressed as the percentage of the control. The results were expressed as mean ±SD. ** p < 0.01; *** p < 0.005 compared with control.
Matrigel was dissolved at 4 °C overnight. Each well of prechilled 96-well plates was coated with 50 μL of Matrigel, incubated and solidified at 37 °C for 45 min. After removing the unsolidified fluid, HUVECs at the density of 1 × 10^4 were cultured in DMEM containing the indicated concentrations of compounds for 6 h. Controls were treated with the DMEM alone. Images were digitally captured and quantitatively analyzed (Olympus). The numbers and line lengths of the circular tubules formed by the cells were calculated manually. The values were observed from five randomly selected fields.

In the next series the test system is A549. Nature of the series: MTT assay, cell proliferation. It is filed as cell-based. The following applies: Homo sapiens, 24 h, read-out: IC50, inhibition of cell proliferation. In a few lines:
(§3)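 Viability after a 24 h compound exposure (5 × 10^3 cells/well, 37 °C) was measured by MTT reduction over 3 h with a 570 nm read-out. IC50 values are concentrations that halve proliferation relative to untreated control.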

The next series concerns HCT116. Nature of the series: MTT assay, cell proliferation. In kind it is cell-based. The following applies: Homo sapiens, HCT-116, 24 h, read-out: IC50, inhibition of cell proliferation. In a few lines: as §3
A further series concerns HeLa. Nature of the series: MTT assay, cell proliferation. In kind it is cell-based. The following applies: Homo sapiens, 24 h, read-out: IC50, inhibition of cell proliferation. A digest of the protocol: (§4)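 Cells (5 × 10^3/well) exposed to compound for 24 h at 37 °C, 5% CO2; HepG2, HeLa, LO2 in DMEM and K562 in RPMI 1640, each with 10% FBS. MTT added for 3 h, formazan dissolved in DMSO, absorbance at 570 nm. IC50 = concentration giving 50% inhibition of proliferation versus untreated control.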
A general note: Tetrazolium dyes change colour on reduction, which living cells bring about.

Another series has as its system HepG2. Nature of the series: MTT assay, cell proliferation. It is filed as cell-based. The following applies: Homo sapiens, 24 h, read-out: IC50, inhibition of cell proliferation. In a few lines: as §4
For another series, the system named is K562. Kind of series: MTT assay, cell proliferation. It is filed as cell-based. The following applies: Homo sapiens, 24 h, read-out: IC50, inhibition of cell proliferation. A digest of the protocol:
as §4

With `CC(=O)Nc1ccc(NC(=O)/C(C)=C\CC23OC(C)(C)C4CC(C=C5C(=O)c6c(O)c7c(c(CC8OC8(C)C)c6OC542)OC(C)(CCC2OC2(C)C)C=C7)C3=O)cc1` (centres unmarked) [Compound 36, (32,33),(37,38)-Diepoxy-N-(4-acetamidophenyl) gambogamide], the “heart rates relative to control group” value in the series with zebrafish embryos [1] (2.5 µM and 10 µM, zebrafish) is given as “about half of the control group”. Moreover, the “Heart rates of zebrafish” value with zebrafish embryos [1] (2.5 μM) is recorded as 60 ± 5.2 beats/min; in the series with zebrafish embryos [1] (10 μM) it was 60 ± 2.86 beats/min. Besides, the Mortality rates in the series with zebrafish embryos [2] (1 μM, zebrafish) is on record as 0%; with zebrafish embryos [2] (2.5 µM and 10 µM, zebrafish embryos), “less than 20%”; with zebrafish embryos [2] (2.5 μM, zebrafish) it was 3.3 ± 5.77 %; in the series with zebrafish embryos [2] (10 μM, zebrafish), 16.7 ± 5.77 %. For the same compound, the migratory rates with HUVECs [3] came out at 1.7%. Also, the “improvement in the inhibition of tube formation compared with GA” value in the series on HUVECs [4] (0.5 μM) came out at 2 fold. Further, the inhibition at 0.5 µM in the series on HUVECs [4] (Homo sapiens, HUVEC, 0.5 μM, 6 h, vs control, read-out: inhibitory rates of tube formation) was found to be 56.5%. Besides, in the series on HUVECs [4] (Homo sapiens, HUVEC, 2 μM, read-out: tube formation inhibitory rate), the inhibition at 2 µM was determined as 100%. In the series with HUVECs [4] (concentrations exceeding 1 μM), the “inhibition of tubular structures” value is given as “completely inhibit tubular structures”. In addition, the IC50 in the series with A549 was found to be 1290 ± 140 nM; with HCT116, 560 ± 10 nM; in the series with HeLa, 4960 ± 880 nM; in the series on HepG2 it was 1850 ± 80 nM; in the series on K562, 280 ± 30 nM.
